The test system of data set [1] is hepatitis C virus. The data set is described as follows: Protocol 1: serum HCV RNA (TaqMan PCR) in peginterferon/ribavirin nonresponders, iv silibinin for 7 days. It counts as in vivo, human. Conditions: monotherapy. Here is the method:
Patients with previous nonresponse to full dose of peginterferon/ribavirin combination therapy were selected for these studies. […] Patients were required to have a liver biopsy done within 2 years prior inclusion into this study. Standard inclusion/exclusion criteria for peginterferon/ribavirin therapy were applied. Patients first received daily 10 mg/kg silibinin (Legalon Sil®, Madaus, Köln) infused over 4 hrs for 7 consecutive days. On day 1 blood was drawn for determination of oxidative stress parameters at baseline, every 30 minutes during the infusion and 2 hours after the end of the infusion. On day 8 treatment was changed to 140 mg silymarin (Legalon®, Madaus, Köln) TID per os in combination with 180 μ[…]®; Roche, Basel) and 1-1.2 g/d ribavirin (COPEGUS®; Roche, Basel). In both protocols in case of intolerance to PEG-IFN alfa2a or ribavirin, standard dose adjustment guidelines were used. Antiviral combination therapy was given for a total of 24 weeks (with the Option to stop treatment in patients without a >2 log drop at week 12); virologic responders at week 24 were offered to continue treatment for further 48 weeks. After end of the infusion period patients were tested after weeks 2, 4, and then monthly till the end of therapy at week 24. Serum HCV RNA level was determined by the TaqMan PCR assay (Cobas […] TaqMan HCV Test; limit of detection, 15 IU/mL, Roche Diagnostics).
(In general: Real-time PCR tracks product formation cycle by cycle.)

Data set [2] is described as follows: Serum ALT during iv silibinin monotherapy (Protocol 1). It counts as in vivo, human. The following applies: 10 mg/kg/day iv for 7 days; decreased from 162±133; p=0.004. The procedure:
Patients first received daily 10 mg/kg silibinin (Legalon Sil®, Madaus, Köln) infused over 4 hrs for 7 consecutive days. On day 1 blood was drawn for determination of oxidative stress parameters at baseline, every 30 minutes during the infusion and 2 hours after the end of the infusion. On day 8 treatment was changed to 140 mg silymarin (Legalon®, Madaus, Köln) TID per os in combination with 180 μ[…]®; Roche, Basel) and 1-1.2 g/d ribavirin (COPEGUS®; Roche, Basel).

Data set [3] concerns hepatitis C virus. The data set is described as follows: Example 2: iv silibinin co-treatment during ongoing peginterferon/ribavirin, HCV-RNA. It counts as in vivo, human. Here is the method:
Patients were continuously treated with 180 μg peginterferon alfa 2a and weight based ribavirin. In spite of this treatment, five patients were HCV-RNA positive after 24 weeks of therapy: Three male patients and two female patients; four patients with HCV genotype 1 and one patient with HCV genotype 3a; three patients with cirrhosis. Four patients can be regarded as naïve, whereas one patient can be regarded as […] respect to two previous therapies (24 and 48 weeks). In the course of the ongoing treatment with 180 μg peginterferon alfa 2a and weight based ribavirin, all patients were treated at least once for 14 consecutive days with 20 mg/kg/d silibinin iv. During this period, combination therapy with peginterferon/ribavirin was continued.

In data set [4] the target is T1, HCV NS5BΔ21 polymerase genotype J4 (1b) (Hepatitis C virus genotype 1b, UniProt O92972).
T1 construct: HCV NS5BΔ21 polymerase genotype J4 (1b)
The data set is described as follows: Cell-free enzyme assay for HCV RdRp activity. The data set is classed as biochemical. The procedure:
NS5B RNA-dependent RNA polymerase (RdRp) is an essential enzyme fir viral replication (cf. S. B. Hwang et al., Virology 1997, 227, 439-46). The following pure compounds were tested in a cell-free enzyme assay for the detection of HCV RdRp activity: silibinin A, silibinin B, isosilibinin A, isosilibinin B, silichristin, silidianin, and the silibinin ester silibinin-C-2″,3-bis(hydrogensuccinate) disodium (active ingredient of Legalon® SIL).
Stock solutions (100 mM) of the compounds in 100% DMSO were prepared. The concentration of DMSO in all reactions was kept constant at 5%. Target enzyme for the study was HCV NS5BΔ21 polymerase genotype J4 (1b).
The IC50 value of the silibinin ester was determined from the dose-response curve of two measurements. […] Curves were fitted to data points and IC50 values were interpolated from the resulting curves using SigmaPlot 8.0 software.

Another data set concerns mouse cell line L929. It counts as cell-based. The procedure: An in vitro study was performed to assess the cytotoxic potential of silymarin, silibinin, silibinin bis(hydrogensuccinate) disodium salt, and succinic acid by means of the XTT test using the mouse cell line L929 (cf. D. A. Scudiero et al., Cancer Res. 48, 4827-33; O, S. Weislow et al., J. Natl. Cancer Inst., 81, 577-86; N. W. Roehm et al., J. Immunol. Methods, 142). The following concentrations of the test items were tested: 9.77, 19.53, 39.06, 78.13, 156.25, 312.5, 625, 1250 μg/mL. Complete medium (RPMI 1640 containing 10% (v/v) FCS) was used as negative control. The solvent control for the test item was RPMI 1640 medium containing 10% (v/v) FCS) and 1% DMSO. The solvent control for the positive control was also RPMI 1640 medium containing 10% (v/v) FCS and 10.0% (v/v) deionized water. SDS was used as positive control. The following concentrations were applied: 3.125, 6.25, 12.5, 25, 50, 100, 125, 250 μg/mL. The incubation time was 24 hours at 37±1.5° C.

A short description of data set [5]: Example 3: plasma pharmacokinetics of free and total silibinin A and B after Legalon SIL infusion (HPLC-UV). The data set is classed as in vivo, human. Conditions: for AUC(0-∞), free silibinin: 20 mg/kg iv Legalon SIL, 8 hepatitis C patients; for AUC(0-∞), free silibinin / MRT / Tmax / clearance / Vd / half-life: plasma; for MRT / Tmax / clearance / Vd / half-life: human, intravenous, 20 mg/kg; for clearance: read-out: CL, free silibinin (converted); for Vd: read-out: Vz, free silibinin; for half-life: read-out: t1/2, free silibinin (converted). Here is the method:
An in vivo study was performed to characterize plasma concentration/time profiles of silibinin in 8 patients suffering from chronic hepatitis C who received 7 days i.v. infusion treatment with 20 mg silibinin/kg body weight (Legalon® SIL). For multiple doses of 20 mg/kg body weight, plasma concentration/time profiles and PK parameters of free and total silibinin had been observed on day 1 (=single dose conditions) and were compared with those on day 7 (=expected steady state conditions).
The study samples were analyzed using a validated HPLC-UV method. During the assay period the analytical procedure was validated by two calibration curves per analytical run.

Read-outs that look alike come from different tables or passages of the source.

T1 sequence (O92972 2420-2989, stated change not applied): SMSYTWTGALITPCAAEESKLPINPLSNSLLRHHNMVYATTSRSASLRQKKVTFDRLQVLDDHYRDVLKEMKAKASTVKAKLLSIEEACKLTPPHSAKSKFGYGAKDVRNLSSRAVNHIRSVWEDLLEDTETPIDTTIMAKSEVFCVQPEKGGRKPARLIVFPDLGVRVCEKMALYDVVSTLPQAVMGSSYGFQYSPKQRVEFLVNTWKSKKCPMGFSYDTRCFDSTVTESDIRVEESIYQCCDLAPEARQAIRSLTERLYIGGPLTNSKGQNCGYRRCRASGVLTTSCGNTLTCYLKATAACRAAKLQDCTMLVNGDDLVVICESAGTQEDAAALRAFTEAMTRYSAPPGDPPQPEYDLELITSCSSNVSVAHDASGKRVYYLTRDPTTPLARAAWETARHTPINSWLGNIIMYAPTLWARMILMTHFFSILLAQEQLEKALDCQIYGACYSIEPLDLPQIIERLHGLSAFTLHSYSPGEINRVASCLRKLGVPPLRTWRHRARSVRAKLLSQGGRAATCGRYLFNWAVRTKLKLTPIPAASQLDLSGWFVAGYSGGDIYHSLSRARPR

One may read the IC50 as the concentration that gives 50% inhibition. On to `COc1cc(C2Oc3cc(C4Oc5cc(O)cc(O)c5C(=O)C4OC(=O)CCC(=O)O)ccc3OC2COC(=O)CCC(=O)O)ccc1O` (stereo not drawn) [silibinin C-2′,3-bis(hydrogensuccinate)], for which, in the data set on hepatitis C virus [1] (10 mg/kg/day iv for 7 days), the “mean log decline of HCV RNA within one week” value came out at 1.32±0.55 log. Besides, in the data set on hepatitis C virus [1] (10 mg/kg/day iv over 4 h for 7 days, baseline 6.59±0.53, 16 nonresponders, p<0.001), the “Serum HCV RNA at day 8 (mean±SD)” value is given as 5.26±0.81 log IU/ml. In addition, the “ALT after iv monotherapy” value in data set [2] turned out to be 118±107 U/1. Further, the “viral load after second co-treatment, FIG. 7 patient” value with hepatitis C virus [3] (20 mg/kg/day iv 14 days, permanently depressed) is “below the detection limit”. Also, the “viral load rebound after the first administration interval, FIG. 7 patient” value in the data set on hepatitis C virus [3] (person) is “about 2 IU/mL”. Also, in the data set on hepatitis C virus [3] (person, 20 mg/kg/day iv 14 days after 30 weeks, from about log 4 IU/mL, permanent), the “viral load after co-treatment, FIG. 8 patient” value is “below the detection limit”. Besides, in the data set with hepatitis C virus [3] (person, 20 mg/kg/day iv 14 days after 72 weeks), the “viral load after co-treatment, FIG. 9 patient” value is reported as “far below the detection limit”. Also, in the data set on hepatitis C virus [3] (person, 20 mg/kg/day iv 14 days from week 24, from about log 4.5 IU/mL), the “viral load after first co-treatment, FIG. 7 patient” value is given as “below the detection limit”. The IC50 in data set [4] was found to be 47 ± 14 µM. The “NS5B inhibition compared with six purified constituents of silymarin” value in data set [4] (FIG. 11 vs FIG. 12) is listed as “most efficient”.

Turning to silymarin, in the data set with mouse cell line L929, the “calculated XTT50 value” is 35.2 µg/mL and the “cytotoxic potential higher than that of silibinin” value is ~100%.

By MRT is commonly meant the average time that molecules of a dose stay in the body. The Tmax is the time at which the peak concentration occurs. With `COc1cc([C@@H]2Oc3cc([C@H]4Oc5cc(O)cc(O)c5C(=O)[C@@H]4O)ccc3O[C@H]2CO)ccc1O` [Silibinin B], in data set [5] (day 1), the “AUC(0-tz), free silibinin” value was determined as 559 ± 339 ng·h/mL; the “Cmax, free silibinin” value came out at 90 ± 44 ng/mL; the “HVD, free silibinin” value is recorded as 6.09 ± 2.14 h; the “AUC(0-∞), free silibinin” value stood at 753 ± 397 ng·h/mL. In addition, in data set [5] (day 1), the MRT turned out to be 8.81 ± 6.12 h, the Tmax came out at 4.03 ± 0.04 h, the clearance was 747 mL/min/kg and the Vd was 286 ± 164 L/kg. The half-life in data set [5] (day 1) is 5.16 ± 4.96 h. In addition, in data set [5] (day 7), the “% PTF, free silibinin” value was found to be 305.24 ± 80.46%; the “AUCss, free silibinin” value was 1041 ± 627 ng·h/mL; the “Cav, free silibinin” value came to 43 ± 26 ng/mL; the “Cmax, free silibinin” value was 120 ± 54 ng/mL. In addition, in data set [5] (day 7), the “HVD, free silibinin” value worked out at 7.17 ± 1.63 h; the MRT was 6.27 ± 2.39 h; the clearance was 447 mL/min/kg; the Vd came out at 140 ± 49 L/kg. The half-life in data set [5] (day 7) was 4.35 ± 1.66 h.

`COc1cc([C@H]2Oc3cc([C@H]4Oc5cc(O)cc(O)c5C(=O)[C@@H]4O)ccc3O[C@@H]2CO)ccc1O` [Silibinin A]: in data set [5] (day 1), the “AUC(0-tz), free silibinin” value is 3302 ± 1551 ng·h/mL; the “Cmax, free silibinin” value was 316 ± 108 ng/mL; the “HVD, free silibinin” value was determined as 10.12 ± 4.29 h; the “AUC(0-∞), free silibinin” value was determined as 3614 ± 1648 ng·h/mL. Moreover, in data set [5] (day 1), the MRT turned out to be 8.49 ± 2.64 h, the Tmax amounted to 3.73 ± 1.22 h, the clearance is 117 mL/min/kg and the Vd amounted to 51.4 ± 12.7 L/kg. In data set [5] (day 1), the half-life was 4.58 ± 1.35 h. In data set [5] (day 7), the “% PTF, free silibinin” value was found to be 164.00 ± 45.33%; the “AUCss, free silibinin” value is 4095 ± 1942 ng·h/mL; the “Cav, free silibinin” value came out at 171 ± 81 ng/mL; the “Cmax, free silibinin” value worked out at 315 ± 119 ng/mL. Moreover, in data set [5] (day 7), the “HVD, free silibinin” value is listed as 11.87 ± 2.64 h; the MRT stood at 9.88 ± 1.86 h; the clearance was 98.3 mL/min/kg; the Vd turned out to be 55.3 ± 18.5 L/kg. For the same compound, the half-life in data set [5] (day 7) was 6.85 ± 1.29 h.

The values are drawn from patent publication US9248115B2, “Silibinin component for the treatment of hepatitis” (MADAUS GmbH, priority 2007, dated 2016).
